Measurements: the NIST ThermoML archive (doi:10.1016/j.jct.2019.02.026)

Conditions: Liquid, Falling or rolling sphere viscometry

CCCCCCCCCCCC(=O)OC [methyl dodecanoate]
Conditions | viscosity [mPa·s]
302.7 K, 30290 kPa | 3.6
302.94 K, 20178 kPa | 3.15
303.04 K, 110 kPa | 2.53
303.04 K, 10512 kPa | 2.85
312.33 K, 30212 kPa | 2.87
312.5 K, 20279 kPa | 2.59
312.61 K, 10214 kPa | 2.33
312.63 K, 134 kPa | 2.09
331.07 K, 29762 kPa | 2.04
331.34 K, 20420 kPa | 1.86
331.51 K, 10354 kPa | 1.67
331.66 K, 132 kPa | 1.51
351.24 K, 29906 kPa | 1.53
351.57 K, 20226 kPa | 1.37
351.74 K, 10090 kPa | 1.25
351.81 K, 235 kPa | 1.14
361.57 K, 30100 kPa | 1.35
361.6 K, 19931 kPa | 1.25
361.75 K, 10141 kPa | 1.12
362.23 K, 2921 kPa | 1.05

CCCCCCC(=O)OC [methyl heptanoate]
Conditions | viscosity [mPa·s]
292.04 K, 30028 kPa | 1.5
292.56 K, 25040 kPa | 1.42
292.87 K, 19994 kPa | 1.35
293.58 K, 14994 kPa | 1.28
293.85 K, 9970 kPa | 1.22
294.13 K, 4967 kPa | 1.17
294.2 K, 107 kPa | 1.11
302.83 K, 29961 kPa | 1.24
302.93 K, 25017 kPa | 1.2
303.02 K, 19985 kPa | 1.15
303.05 K, 14993 kPa | 1.1
303.08 K, 10026 kPa | 1.05
303.12 K, 5011 kPa | 1
303.15 K, 102 kPa | 0.95
312.49 K, 29986 kPa | 1.09
312.57 K, 25001 kPa | 1.05
312.62 K, 20047 kPa | 1.01
312.65 K, 10009 kPa | 0.92
312.66 K, 15001 kPa | 0.97
312.77 K, 103 kPa | 0.83
312.78 K, 5010 kPa | 0.88
322.09 K, 29925 kPa | 0.97
322.17 K, 19955 kPa | 0.89
322.21 K, 15004 kPa | 0.85
322.23 K, 10018 kPa | 0.81
322.23 K, 25027 kPa | 0.93
322.26 K, 5004 kPa | 0.77
322.33 K, 96 kPa | 0.73
331.56 K, 30001 kPa | 0.87
331.67 K, 19865 kPa | 0.8
331.68 K, 25041 kPa | 0.83
331.74 K, 15035 kPa | 0.76
331.78 K, 5007 kPa | 0.69
331.78 K, 9972 kPa | 0.72
331.85 K, 99 kPa | 0.65
341.48 K, 14961 kPa | 0.69
341.67 K, 96 kPa | 0.58
341.68 K, 10141 kPa | 0.65
341.72 K, 5062 kPa | 0.62
341.73 K, 29980 kPa | 0.78
341.8 K, 25032 kPa | 0.75
341.81 K, 20048 kPa | 0.72
351.26 K, 14966 kPa | 0.61
351.27 K, 10077 kPa | 0.58
351.31 K, 19977 kPa | 0.64
351.46 K, 30010 kPa | 0.7
351.49 K, 24997 kPa | 0.67
361.24 K, 29993 kPa | 0.64
361.37 K, 20002 kPa | 0.58
361.47 K, 25022 kPa | 0.61

CCCCCC(=O)OC [methyl hexanoate]
Conditions | viscosity [mPa·s]
292.99 K, 29973 kPa | 1.16
293.48 K, 25055 kPa | 1.11
293.98 K, 19999 kPa | 1.06
294.34 K, 15024 kPa | 1.01
294.63 K, 9980 kPa | 0.96
294.75 K, 5079 kPa | 0.92
294.86 K, 105 kPa | 0.87
302.79 K, 29963 kPa | 1.01
302.89 K, 24988 kPa | 0.97
302.98 K, 19967 kPa | 0.93
303.01 K, 15014 kPa | 0.89
303.05 K, 10031 kPa | 0.86
303.09 K, 5026 kPa | 0.81
303.12 K, 107 kPa | 0.77
312.57 K, 29951 kPa | 0.89
312.62 K, 24986 kPa | 0.85
312.69 K, 15010 kPa | 0.78
312.69 K, 20046 kPa | 0.82
312.7 K, 4988 kPa | 0.71
312.71 K, 10033 kPa | 0.75
312.74 K, 103 kPa | 0.68
321.96 K, 29975 kPa | 0.8
322.08 K, 9972 kPa | 0.67
322.12 K, 19979 kPa | 0.74
322.14 K, 24972 kPa | 0.77
322.29 K, 98 kPa | 0.61
322.29 K, 5048 kPa | 0.64
322.32 K, 15008 kPa | 0.7
331.74 K, 30010 kPa | 0.72
331.8 K, 25008 kPa | 0.69
331.83 K, 14994 kPa | 0.63
331.89 K, 9984 kPa | 0.6
331.93 K, 20001 kPa | 0.66
341.38 K, 29965 kPa | 0.64
341.39 K, 20015 kPa | 0.59
341.41 K, 25042 kPa | 0.62

CCCCCCCCC(=O)OC [methyl nonanoate]
Conditions | viscosity [mPa·s]
297.15 K, 30034 kPa | 2.11
297.5 K, 24979 kPa | 2.01
297.81 K, 20011 kPa | 1.93
298.08 K, 14977 kPa | 1.83
298.42 K, 9955 kPa | 1.73
298.77 K, 4957 kPa | 1.65
299.19 K, 103 kPa | 1.56
302.91 K, 24994 kPa | 1.83
302.95 K, 30000 kPa | 1.91
303.01 K, 9972 kPa | 1.62
303.08 K, 4961 kPa | 1.54
303.09 K, 15047 kPa | 1.68
303.09 K, 19964 kPa | 1.76
303.1 K, 106 kPa | 1.46
312.06 K, 29961 kPa | 1.65
312.19 K, 25005 kPa | 1.57
312.27 K, 19968 kPa | 1.5
312.28 K, 9996 kPa | 1.38
312.28 K, 14963 kPa | 1.43
312.32 K, 4993 kPa | 1.32
312.38 K, 99 kPa | 1.26
321.26 K, 29949 kPa | 1.42
321.36 K, 24985 kPa | 1.36
321.49 K, 19988 kPa | 1.31
321.56 K, 10020 kPa | 1.2
321.6 K, 4982 kPa | 1.14
321.61 K, 15017 kPa | 1.25
321.64 K, 96 kPa | 1.08
330.93 K, 30013 kPa | 1.24
330.94 K, 19996 kPa | 1.14
331.13 K, 9979 kPa | 1.04
331.13 K, 25032 kPa | 1.19
331.2 K, 14998 kPa | 1.09
331.23 K, 5027 kPa | 0.99
331.26 K, 108 kPa | 0.94
340.91 K, 19959 kPa | 0.99
340.95 K, 25015 kPa | 1.04
340.96 K, 30009 kPa | 1.08
341.03 K, 4962 kPa | 0.86
341.06 K, 10010 kPa | 0.91
341.14 K, 15019 kPa | 0.94
341.21 K, 96 kPa | 0.81
350.73 K, 29961 kPa | 0.96
350.74 K, 24964 kPa | 0.92
350.81 K, 14959 kPa | 0.83
350.86 K, 20020 kPa | 0.87
350.88 K, 9984 kPa | 0.79
350.95 K, 4985 kPa | 0.75
351.04 K, 101 kPa | 0.71
360.61 K, 25005 kPa | 0.82
360.67 K, 29996 kPa | 0.85
360.71 K, 19982 kPa | 0.77
360.82 K, 9960 kPa | 0.7
360.86 K, 4959 kPa | 0.66
360.89 K, 14997 kPa | 0.74
360.96 K, 98 kPa | 0.62

CCCCCCCC(=O)OC [methyl octanoate]
Conditions | viscosity [mPa·s]
294.65 K, 30063 kPa | 1.81
294.79 K, 25004 kPa | 1.73
295.08 K, 19995 kPa | 1.65
295.22 K, 14978 kPa | 1.58
295.3 K, 10017 kPa | 1.5
295.48 K, 5004 kPa | 1.43
295.62 K, 102 kPa | 1.37
303.06 K, 29942 kPa | 1.58
303.1 K, 25013 kPa | 1.52
303.11 K, 20009 kPa | 1.46
303.13 K, 5014 kPa | 1.27
303.13 K, 15018 kPa | 1.39
303.14 K, 9987 kPa | 1.33
303.16 K, 98 kPa | 1.21
312.35 K, 29980 kPa | 1.37
312.4 K, 25014 kPa | 1.32
312.44 K, 10045 kPa | 1.15
312.44 K, 20035 kPa | 1.27
312.47 K, 15056 kPa | 1.21
312.49 K, 5022 kPa | 1.1
312.51 K, 101 kPa | 1.05
321.71 K, 29998 kPa | 1.21
321.89 K, 25073 kPa | 1.16
321.97 K, 9991 kPa | 1.01
322.02 K, 5045 kPa | 0.97
322.06 K, 20031 kPa | 1.11
322.09 K, 103 kPa | 0.92
322.11 K, 14992 kPa | 1.06
331.51 K, 29993 kPa | 1.08
331.6 K, 25035 kPa | 1.04
331.61 K, 20038 kPa | 1
331.62 K, 5013 kPa | 0.86
331.72 K, 15022 kPa | 0.95
331.73 K, 10033 kPa | 0.91
331.87 K, 108 kPa | 0.82
341.44 K, 29966 kPa | 0.96
341.56 K, 25026 kPa | 0.92
341.61 K, 15013 kPa | 0.84
341.62 K, 20045 kPa | 0.88
341.63 K, 4984 kPa | 0.76
341.64 K, 10011 kPa | 0.8
341.66 K, 97 kPa | 0.72
351.58 K, 103 kPa | 0.64
351.6 K, 4996 kPa | 0.68
351.62 K, 29959 kPa | 0.87
351.64 K, 10072 kPa | 0.72
351.65 K, 15006 kPa | 0.75
351.7 K, 19996 kPa | 0.79
351.78 K, 25021 kPa | 0.83
361.2 K, 9990 kPa | 0.64
361.23 K, 4990 kPa | 0.61
361.41 K, 19980 kPa | 0.72
361.44 K, 15037 kPa | 0.68
361.45 K, 103 kPa | 0.58
361.59 K, 25011 kPa | 0.74
361.74 K, 29991 kPa | 0.78
